In patent US6492370B1, “Urea derivatives and pharmaceutical compositions thereof” (Santen Pharmaceutical Co., Ltd., priority 1998, dated 2002) one finds inhibition and melting point data, which are given here for one compound.

SMILES strings stand for the structures.

One may read the inhibition as the percentage by which the read-out fell short of the control. What is called melting point is the temperature of the solid-liquid transition.

Data set [1] has as its system TNF-α production from human monocytic line THP-1 by LPS stimulation. Nature of the data set: In vitro test: TNF-α production from human monocytic line THP-1 by LPS stimulation. Type of data set: cell-based. Conditions: 2 h; test compound 10^−5 M, THP-1 cells 10^6/ml, LPS 2 μg/ml, 37° C. for two hours, human TNF-α specific ELISA; read-out: Inhibition rate (%) (TNF-α inhibition rates). As to the method: Inhibitory effects on TNF-α production induced by lipopolysaccharide (LPS) stimulation were studied by in vitro or in vivo tests according to the method of McGeehan et al. (Nature, 370, […](1994)).
Analyses were carried out by measuring TNF-α production from human monocytic line THP-1 by LPS stimulation.
As a medium, an RPMI1640medium containing a fetal bovine serum(10%), L-glutamine (2 mM), 2-mercaptoethanol (50 μM), penicillin (50 units/ml) and streptomycin (50 μg/ml) was used.
With respect to cells, human monocytic line THP-1 cells cultured in the above-mentioned medium were centrifuged at 100×g for five minutes to remove supernatant and then re-suspended in the medium. With respect to LPS, LPS from S. Typhimurium was dissolved in purified water and then diluted with the medium. Test compounds were dissolved in dimethyl sulfoxide (DMSO) and then diluted with the medium.
The cells (10^6/ml), LPS (2 μg/ml) and the test compound (10^−5 M) prepared as mentioned above were mixed, and this mixture was incubated at 37° C. for two hours and then centrifuged at 1000×g […] in cultured supernatant were measured with a human TNF-α specific ELISA kit. TNF-α production was not observed in the cultured supernatant in the absence of LPS (control).
TNF-α production inhibition rates of the test compounds were determined by the following equation.
Inhibition rate (%)=[(A-B)/A]×100
A: TNF-α level in supernatant of culture medium in the absence of test compound
B: TNF-α level in supernatant of culture medium in the presence of test compound
(In general: An ELISA detects its analyte on a solid surface through an enzyme-linked reagent.)

The compound `CC(=O)SCCN(CCc1ccccc1)C(=O)N[C@@H](Cc1ccc(-c2ccccc2)c([N+](=O)[O-])c1)C(=O)NCCN(C)C` [Compound No. 27-19, (2S)-2-[3-[2-(Acetylthio)ethyl]-3-phenethylureido]-N-[2-(dimethylamino)ethyl]-3-(2-nitro-4-biphenylyl)propionamide] showed a melting point of 90 °C. Further, the inhibition at 10 µM in data set [1] is 93.5%.
